Test results from patent US12679824B2 (Hoffmann-La Roche Inc., priority 2020, dated 2026).

test system: Acinetobacter baumannii ATCC17961; experiment: 90% Growth Inhibitory Concentration (IC90) determination, antimicrobial susceptibility testing; assay type: cell-based; conditions: Acinetobacter baumannii, ATCC17961, 16 h, Acinetobacter baumannii ATCC17961; Iso-Sensitest broth; growth by optical density at 600 nm over 16h; concentration inhibiting 90% of the growth; read-out: ATCC 17961 IC90
Experimental: Antimicrobial Susceptibility Testing:
90% Growth Inhibitory Concentration (IC90) Determination
The in vitro antimicrobial activity of the compounds was determined according to the following procedure:
The assay used a 10-points Iso-Sensitest broth medium to measure quantitatively the in vitro activity of the compounds against Acinetobacter baumannii ATCC17961.
Stock compounds in DMSO were serially twofold diluted (e.g. range from 50 to 0.097 μM final concentration) in 384 wells microtiter plates and inoculated with 49 μl the bacterial suspension in Iso-Sensitest medium to have a final cell concentration of ~5×10^(5) CFU/ml in a final volume/well of 50 ul/well. Microtiter plates were incubated at 35±2° C.
Bacterial cell growth was determined with the measurement of optical density at λ=600 nm each 20 minutes over a time course of 16h. Growth inhibition was calculated during the logarithmic growth of the bacterial cells with determination of the concentration inhibiting 50% (IC50) and 90% (IC90) of the growth.
Table 1 provides the 90% growth inhibitory concentrations (IC90) in micromoles per liter of the compounds of present invention obtained against the strain Acinetobacter baumannii ATCC17961.

Row | Structure (SMILES) | IC90
1 | COc1ccnc(-n2cc(-c3cnc(C(=O)Nc4ccc(C(=O)N5CCN(C(=O)C6CCNCC6)CC5)c(Cl)c4)n3C)c(C(F)(F)F)n2)n1 [Example C5, N-[3-chloro-4-[4-(piperidine-4-carbonyl)piperazine-1-carbonyl]phenyl]-5-[1-(4-methoxypyrimidin-2-yl)-3-(trifluoromethyl)pyrazol-4-yl]-1-methyl-imidazole-2-carboxamide] | 930 nM
2 | Cn1c(-c2cn(-c3ccc(N)cn3)nc2C(F)(F)F)cnc1C(=O)Nc1ccc(C(=O)NCC2CCN(C(=O)[C@@H]3C[C@@H](O)CN3)CC2)c(Cl)c1 [Example Z34, 5-[1-(5-amino-2-pyridyl)-3-(trifluoromethyl)pyrazol-4-yl]-N-[3-chloro-4-[[1-[(2S,4R)-4-hydroxyprolyl]-4-piperidyl]methylcarbamoyl]phenyl]-1-methyl-imidazole-2-carboxamide] | 410 nM
3 | Cc1nc(N)ccc1-n1cc(-c2cnc(C(=O)Nc3ccc(C(=O)N4CCN(C(=O)C5CCNCC5)CC4)c(Cl)c3)n2C)c(C(F)(F)F)n1 [Example Z79, 5-[1-(6-amino-2-methyl-3-pyridyl)-3-(trifluoromethyl)pyrazol-4-yl]-N-[3-chloro-4-[4-(piperidine-4-carbonyl)piperazine-1-carbonyl]phenyl]-1-methyl-imidazole-2-carboxamide] | 1200 nM
4 | C[C@@H]1CN(C(=O)c2ccc(NC(=O)c3ncc(-c4cn(-c5ccc(N)cn5)nc4C(F)(F)F)n3C)cc2Cl)CCCN1 [Example Z52, 5-[1-(5-amino-2-pyridyl)-3-(trifluoromethyl)pyrazol-4-yl]-N-[3-chloro-4-[(3R)-3-methyl-1,4-diazepane-1-carbonyl]phenyl]-1-methyl-imidazole-2-carboxamide] | 1270 nM
5 | Cn1c(-c2cn(-c3ccc(Cl)nc3)nc2C(F)(F)F)cnc1C(=O)Nc1ccc(C(=O)N2CCN(C(=O)[C@@H]3C[C@@H](O)CN3)CC2)c(Cl)c1 [Example Z30, N-[3-chloro-4-[4-[(2S,4R)-4-hydroxyprolyl]piperazine-1-carbonyl]phenyl]-5-[1-(6-chloro-3-pyridyl)-3-(trifluoromethyl)pyrazol-4-yl]-1-methyl-imidazole-2-carboxamide] | 780 nM

The next lines start with the values.

Row | IC90 | Structure (SMILES)
6 | 540 nM | Cn1c(-c2cn(-c3cc(N)c(N)cn3)nc2C(F)(F)F)cnc1C(=O)Nc1ccc(C(=O)N2CCN(C(=O)C3CCNCC3)CC2)c(Cl)c1 [Example Z87, N-[3-chloro-4-[4-(piperidine-4-carbonyl)piperazine-1-carbonyl]phenyl]-5-[1-(4,5-diamino-2-pyridyl)-3-(trifluoromethyl)pyrazol-4-yl]-1-methyl-imidazole-2-carboxamide]
7 | 330 nM | Cn1c(-c2cn(-c3ccc(N)nc3)nc2C(F)(F)F)cnc1C(=O)Nc1ccc(C(=O)N2CCN(C(=O)C3CCNCC3)CC2)c(Cl)c1 [Example Z10, 5-[1-(6-amino-3-pyridyl)-3-(trifluoromethyl)pyrazol-4-yl]-N-[3-chloro-4-(4-isonipecotoylpiperazine-1-carbonyl)phenyl]-1-methyl-imidazole-2-carboxamide]
8 | 290 nM | Cc1nc(-n2cc(-c3cnc(C(=O)Nc4ccc(C(=O)N5CCN(C(=O)C6CCNCC6)CC5)c(Cl)c4)n3C)c(C(F)(F)F)n2)ccc1N [Example Z86, 5-[1-(5-amino-6-methylpyridin-2-yl)-3-(trifluoromethyl)pyrazol-4-yl]-N-[3-chloro-4-[4-(piperidine-4-carbonyl)piperazine-1-carbonyl]phenyl]-1-methylimidazole-2-carboxamide]

same assay, conditions: Acinetobacter baumannii, ATCC17961, 16 h, read-out: ATCC 17961 IC90

Row | Structure (SMILES) | IC90
9 | Cn1c(-c2cn(-c3ccc(N)cn3)nc2C(F)(F)F)cnc1C(=O)Nc1ccc(C(=O)N2CC[C@H](CN)C2)c(Cl)c1 [Example Z1, N-[4-[(3R)-3-(aminomethyl)pyrrolidine-1-carbonyl]-3-chloro-phenyl]-5-[1-(5-amino-2-pyridyl)-3-(trifluoromethyl)pyrazol-4-yl]-1-methyl-imidazole-2-carboxamide] | 480 nM
10 | Cn1c(-c2cn(-c3ccc(N)cn3)nc2C(F)(F)F)cnc1C(=O)Nc1ccc(C(=O)N2CCN(C(=O)[C@@H]3CC(O)CCN3)CC2)c(Cl)c1 (stereo partly shown) [Example J1] | 580 nM
